From US20250214977A1, “STAT6 INHIBITORS AND USES THEREOF” (Kymera Therapeutics, Inc., priority 2024, published 2025)

tested on: Phosphorylation of STAT6 in human A549 cells; assay: Phosphorylated STAT6 (pSTAT6) flow cytometry assay in human A549 cells; format: cell-based; conditions: read-out: STAT6 IL4 pSTAT6 assay in A549 cells: Average IC50
Text: Example 3. Phosphorylated STAT6 (pSTAT6) Flow Cytometry Assay in Human A549 Cells
Phosphorylation of STAT6 in human A549 cells was quantitatively measured using flow cytometry technology.

Structure (SMILES)	IC50 [µM]
COc1ccccc1-c1cc(C2=CCCN(C(=O)CCn3ccnn3)C2)c(F)c2[nH]c(C(=O)N3CCNC(=O)CC3)cc12 [Example I-983]	< 0.1
COc1ccccc1-c1cc(C2=CCCN(C(=O)[C@H]3Cc4ccccc4CN3C=O)C2)cc2cc(C(=O)N(C)C)oc12 [Example I-839]	< 0.1
COc1cc(F)cnc1N1CCN(C(=O)c2cc3c(C4=CCOCC4)cc(C4=CCCN(C(=O)CCn5ccnn5)C4)c(F)c3[nH]2)CC1 [Example I-1156]	< 0.1
COc1ccccc1-c1cc(C2=CCCN(C(=O)CCn3ccnn3)C2)c(F)c2[nH]c(C(=O)N3CCN(c4cccc(OC(F)F)c4)CC3)cc12 [Example I-427]	< 0.1
COc1cc(F)cnc1N1CCN(C(=O)c2cc3c(C4=CCN(C(C)C)CC4)cc(C4=CCCN(C(=O)CCn5ccnn5)C4)c(F)c3[nH]2)CC1 [Example I-1133]	< 0.1
COc1ccccc1-c1cc(C(=O)N(C)C)cc2cc(C3=CCCN(C(=O)CCn4ccnn4)C3)n(CC3CC3)c12 [Example I-899]	< 0.1
COc1cccnc1N1CCN(C(=O)c2cc3c(-n4ccc5ccccc54)cc(C4=CCCN(C(=O)CCn5ccnn5)C4)c(F)c3[nH]2)CC1 [Example I-578]	< 0.1
COc1ccccc1-c1cc(C2=CCCN(C(=O)CCn3ccnn3)C2)c(F)c2[nH]c(C(=O)N3CCN(c4ncc(C#N)cc4OC)CC3)cc12 [Example I-940]	< 0.1
COc1ccccc1-c1cc(C2=CCCN(C(=O)CCn3ccnn3)C2)c(F)c2[nH]c(C(=O)N3CCN(c4cc(C#N)cc5[nH]ccc45)CC3)cc12 [Example I-771]	< 0.1
COc1cccnc1N1CCN(C(=O)c2cc3ccc(C4=CCCN(C(C)=O)C4)c(F)c3[nH]2)CC1 [Example I-902]	1 to 10
COc1ccccc1-c1cc(C2=CCCN(C(=O)CCn3ccnn3)C2)c(F)c2[nH]c(C(=O)N3CCN(c4nccc(-c5ccccc5)n4)CC3)cc12 [Example I-904]	0.1 to 1
CN(C)C(=O)c1cc2cc(C3=CCCN(C(=O)CCn4ccnn4)C3)cc(CN3CCCCC3)c2o1 [Example I-1178]	0.1 to 1
CN(C)C(=O)c1cc2cc(C3=CCCN(C(=O)CCn4ccnn4)C3)cc(NC[C@@H]3CCC(=O)N3C)c2o1 [Example I-896]	0.1 to 1
COc1cc(F)ccc1-c1cc(C2=CCCN(C(=O)CCn3ccnn3)C2)c(F)c2[nH]c(C(=O)N3CCN(c4ncccc4OC4CC4)CC3)cc12 [Example I-594]	< 0.1
CCCCCCc1cc(C2=CCCN(C(=O)CCn3ccnn3)C2)c(F)c2[nH]c(C(=O)N3CCN(c4ncc(F)cc4OC)CC3)cc12 [Example I-695]	> 100
COc1ccccc1-c1cc(C2=CCCN(C(=O)CCn3ccnn3)C2)c(F)c2[nH]c(C(=O)N3CCc4ncncc4C3)cc12 [Example I-1010]	< 0.1
COc1ccncc1-c1cc(C2=CCCN(C(=O)CCn3ccnn3)C2)c(F)c2[nH]c(C(=O)N3CCN(c4ccc(C#N)cc4OC)CC3)cc12 [Example I-474]	< 0.1
COc1ccccc1-c1cc(C2=CCCN(C(=O)CCn3ccnn3)C2)c(F)c2[nH]c(C(=O)N3CCN(c4c(C)ccn5nccc45)CC3)cc12 [Example I-1019]	< 0.1
COc1ccccc1-c1cc(C2=CCCN(C(=O)CCn3ccnn3)C2)c(F)c2[nH]c(C(=O)N3Cc4ccc(C#N)cc4C3)cc12 [Example I-975]	< 0.1
COc1cc(F)cnc1N1CCN(C(=O)c2cc3c(-c4ccc(C5(O)CCC5)cc4)cc(C4=CCCN(C(=O)CCn5ccnn5)C4)c(F)c3[nH]2)CC1 [Example I-1146]	< 0.1
COc1ccccc1-c1cc(C2=CCCN(C(=O)CCn3ccnn3)C2)c(F)c2[nH]c(C(=O)N3CCN(C(C)(C)C)CC3)cc12 [Example I-773]	< 0.1
COc1cc(F)cnc1N1CCN(C(=O)c2cc3c(-c4ccc(OC5CCCCO5)cc4)cc(C4=CCCN(C(=O)CCn5ccnn5)C4)c(F)c3[nH]2)CC1 (centres unmarked) [Example I-1166]	< 0.1
COc1ccccc1-c1cc(C2=CCCN(C(=O)CCn3ccnn3)C2)c(F)c2[nH]c(C(=O)N3CCN(c4ccc(=O)n(C)c4)CC3)cc12 [Example I-971]	< 0.1
COc1ccccc1-c1cc(C2=CCCN(C(=O)CCn3ccnn3)C2)c(F)c2[nH]c(C(=O)N3CCN(c4ccccn4)C(=O)C3)cc12 [Example I-1008]	< 0.1
COc1cc(F)cnc1N1CCN(C(=O)c2cc3c(-c4cncc(-c5ccccc5)c4)cc(C4=CCCN(C(=O)CCn5ccnn5)C4)c(F)c3[nH]2)CC1 [Example I-647]	< 0.1
COc1ccccc1-c1cc(C2=CCCN(C(=O)CCn3ccnn3)C2)c(F)c2[nH]c(C(=O)N3Cc4cn(-c5ncccc5OC)cc4C3)cc12 [Example I-417]	< 0.1

Second part, the molecule after the results:

IC50 [µM]	Structure (SMILES)
< 0.1	CCc1cc(C)ncc1-c1cc(C2=CCCN(C(=O)CCn3ccnn3)C2)c(F)c2[nH]c(C(=O)N3CCN(c4nc(C)c(F)cc4OC)CC3)cc12 [Example I-737]
< 0.1	COc1ccccc1-c1cc(C2=CCCN(C(=O)CCn3ccnn3)C2)c(F)c2[nH]c(C(=O)N3CCN(c4cncn4C)CC3)cc12 [Example I-1026]
< 0.1	COc1cc(F)cnc1N1CCN(C(=O)c2cc3c(-c4ccc(CN5CCOCC5)cc4)cc(C4=CCCN(C(=O)CCn5ccnn5)C4)c(F)c3[nH]2)CC1 [Example I-1122]
< 0.1	CCc1cc(C)ncc1-c1cc(C2=CCCN(C(=O)CCn3cccn3)C2)c(F)c2[nH]c(C(=O)N3CCN(c4nc(C)ccc4OC)CC3)cc12 [Example I-514]
0.1 to 1	CCc1ccncc1-c1cc(C2=CCCN(C(=O)CCC(=O)O)C2)c(F)c2[nH]c(C(=O)N3CCN(c4ncc(F)cc4OC)CC3)cc12 [Example I-1170]
< 0.1	CCc1cc(C(F)F)ncc1-c1cc(C2=CCCN(C(=O)CCn3ccnn3)C2)c(F)c2[nH]c(C(=O)N3CCN(c4nc(C)c(F)cc4OC)CC3)cc12 [Example I-763]
< 0.1	COc1cc(F)cnc1N1CCN(C(=O)c2cc3c(-c4c(F)ccc5ccc(C)nc45)cc(C4=CCCN(C(=O)CCn5ccnn5)C4)c(F)c3[nH]2)CC1 [Example I-631]
< 0.1	COc1c(F)cc(F)cc1-c1cc(C2=CCCN(C(=O)CCn3ccnn3)C2)c(F)c2[nH]c(C(=O)N3CCN(C4CC4)CC3)cc12 [Example I-603]
0.1 to 1	COc1ccccc1-c1cc(C2=CCCN(C(=O)CCn3ccnn3)C2)c(F)c2[nH]c(C(=O)N3CC4CN(c5ncccc5OC)CC4C3)cc12 (centres unmarked) [Example I-1035]
< 0.1	COc1ccccc1-c1cc(C2=CCCN(C(=O)CCn3ccnn3)C2)c(F)c2[nH]c(C(=O)N3CCN(c4cccc(=O)n4C)CC3)cc12 [Example I-1020]
0.1 to 1	CCn1nccc1-c1cc(C(=O)N2Cc3cnn(CC)c3C2)cc2cc(C3=CCCN(C(C)=O)C3)n(CC3CC3)c12 [Example I-1045]
0.1 to 1	COc1ccccc1-c1cc(C2=CCCN(C(=O)CCn3ccnn3)C2)c(F)c2[nH]c(C(=O)N3CCN(Cc4ccc(Br)cc4)CC3)cc12 [Example I-852]
< 0.1	COc1ccccc1-c1cc(C2=CCCN(C(=O)CCn3ccnn3)C2)c(F)c2[nH]c(C(=O)N3CCN(c4ccn(C)n4)CC3)cc12 [Example I-933]
> 100	COc1ccccc1-c1cc(C2=CCCN(C(=O)CCn3ccnn3)C2)c(F)c2[nH]c(C(=O)N3CCN(c4ncccc4C4CC4)CC3)cc12 [Example I-495]
0.1 to 1	CC(=O)N1CCC=C(c2cc(-c3ccc4n[nH]c(C)c4c3)c3cc(C(=O)N(C)C)[nH]c3c2F)C1 [Example I-883]
